Data published in ChEMBL document CHEMBL1201862, “PubChem BioAssay data set” (2004).
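Cultured in 96-well plates, cells were exposed to test compound for 48 hours across five concentrations. Here, GI50 denotes the concentration required for 50% inhibition of growth.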 Active and inactive are the calls of the source. Cut-off read from the data, not from the text of the source: active = GI50 up to about 1.1 µM and inactive = higher.

Key:
Test in all cases: NCI anticancer screen, dose series, 48 h
786-0 = system: 786-0
A498 = system: A498
A549 = system: A549
ACHN = system: ACHN
BT-549 = system: BT-549
CAKI-1 = system: CAKI-1
CCRF-CEM = system: CCRF-CEM
COLO 205 = system: COLO 205
DLD-1 = system: DLD-1
DMS-114 = system: DMS-114
DMS-273 = system: DMS-273
DU-145 = system: DU-145
EKVX = system: EKVX
HCC 2998 = system: HCC 2998
HCT-116 = system: HCT-116
HCT-15 = system: HCT-15
HL-60 = system: HL-60
HOP-18 = system: HOP-18
HOP-62 = system: HOP-62
HOP-92 = system: HOP-92
HT-29 = system: HT-29
Hs-578T = system: Hs-578T
IGROV-1 = system: IGROV-1
K562 = system: K562
KM-20L2 = system: KM-20L2
KM12 = system: KM12
LOX IMVI = system: LOX IMVI
LXFL 529 = system: LXFL 529
M14 = system: M14
M19-MEL = system: M19-MEL
MCF7 = system: MCF7
MDA-MB-231 = system: MDA-MB-231
MDA-MB-435 = system: MDA-MB-435
MDA-N = system: MDA-N
MOLT-4 = system: MOLT-4
Malme-3M = system: Malme-3M
NCI-H226 = system: NCI-H226
NCI-H23 = system: NCI-H23
NCI-H460 = system: NCI-H460
NCI-H522 = system: NCI-H522
NCI/ADR-RES = system: NCI/ADR-RES
OVCAR-3 = system: OVCAR-3
OVCAR-4 = system: OVCAR-4
OVCAR-5 = system: OVCAR-5
PC-3 = system: PC-3
RPMI-8226 = system: RPMI-8226
RXF 393 = system: RXF 393
SF-268 = system: SF-268
SF-295 = system: SF-295
SF-539 = system: SF-539
SK-MEL-28 = system: SK-MEL-28
SK-MEL-2 = system: SK-MEL-2
SK-MEL-5 = system: SK-MEL-5
SK-OV-3 = system: SK-OV-3
SN12C = system: SN12C
SNB-19 = system: SNB-19
SNB-75 = system: SNB-75
SNB-78 = system: SNB-78
SR = system: SR
SW-620 = system: SW-620
T47D = system: T47D
TK-10 = system: TK-10
U-251 = system: U-251
UACC-257 = system: UACC-257
UACC-62 = system: UACC-62
UO-31 = system: UO-31
XF498 = system: XF498
OVCAR-8 = system: OVCAR-8
RXF 631 = system: RXF 631

SMILES: O=[N+]([O-])c1cccc2nc3ccccc3c(NCCO)c12
- GI50 (786-0): 0.00315 µM (active)
- GI50 (A498): 0.00383 µM (active)
- GI50 (A549): 0.0034 µM (active)
- GI50 (ACHN): 0.00151 µM (active)
- GI50 (BT-549): 0.00514 µM (active)
- GI50 (CAKI-1): 0.00323 µM (active)
- GI50 (CCRF-CEM): 0.00989 µM (active)
- GI50 (COLO 205): 0.00167 µM (active)
- GI50 (DLD-1): 0.000277 µM (active)
- GI50 (DMS-114): 0.00316 µM (active)
- GI50 (DMS-273): 0.00918 µM (active)
- GI50 (DU-145): 0.0036 µM (active)
- GI50 (EKVX): 0.00111 µM (active)
- GI50 (HCC 2998): 0.00166 µM (active)
- GI50 (HCT-116): 0.00202 µM (active)
- GI50 (HCT-15): 0.00133 µM
- GI50 (HL-60): 0.00325 µM (active)
- GI50 (HOP-18): 0.0056 µM (active)
- GI50 (HOP-62): 0.000539 µM (active)
- GI50 (HOP-92): 0.0016 µM (active)
- GI50 (HT-29): 0.000108 µM (active)
- GI50 (Hs-578T): 0.00684 µM (active)
- GI50 (IGROV-1): 0.00269 µM (active)
- GI50 (K562): 0.000237 µM (active)
- GI50 (KM-20L2): 0.000121 µM (active)
- GI50 (KM12): 0.00366 µM (active)
- GI50 (LOX IMVI): 0.00418 µM (active)
- GI50 (LXFL 529): 0.00285 µM (active)
- GI50 (M14): 0.000243 µM (active)
- GI50 (M19-MEL): 0.0021 µM (active)
- GI50 (MCF7): 0.0021 µM (active)
- GI50 (MDA-MB-231): 0.00215 µM (active)
- GI50 (MDA-MB-435): 0.00179 µM (active)
- GI50 (MDA-N): 0.002 µM (active)
- GI50 (MOLT-4): 0.00407 µM (active)
- GI50 (Malme-3M): 0.00331 µM (active)
- GI50 (NCI-H226): 0.00248 µM (active)
- GI50 (NCI-H23): 0.00194 µM (active)
- GI50 (NCI-H460): 0.000767 µM (active)
- GI50 (NCI-H522): 0.00248 µM (active)
- GI50 (NCI/ADR-RES): 0.00566 µM (active)
- GI50 (OVCAR-3): 0.000486 µM (active)
- GI50 (OVCAR-4): 0.000719 µM (active)
- GI50 (OVCAR-5): 0.00219 µM (active)
- GI50 (PC-3): 0.00378 µM (active)
- GI50 (RPMI-8226): 0.000682 µM (active)
- GI50 (RXF 393): 0.00169 µM (active)
- GI50 (SF-268): 0.00326 µM (active)
- GI50 (SF-295): 0.00467 µM (active)
- GI50 (SF-539): 0.00262 µM (active)
- GI50 (SK-MEL-28): 0.00217 µM (active)
- GI50 (SK-MEL-2): 0.00502 µM (active)
- GI50 (SK-MEL-5): 0.00286 µM (active)
- GI50 (SK-OV-3): 0.00387 µM (active)
- GI50 (SN12C): 0.00197 µM (active)
- GI50 (SNB-19): 0.00977 µM (active)
- GI50 (SNB-75): 0.00164 µM (active)
- GI50 (SNB-78): 0.00533 µM (active)
- GI50 (SR): 0.0236 nM (active)
- GI50 (SW-620): 0.00118 µM (active)
- GI50 (T47D): 0.000611 µM (active)
- GI50 (TK-10): 0.00269 µM (active)
- GI50 (U-251): 0.00281 µM (active)
- GI50 (UACC-257): 0.00421 µM (active)
- GI50 (UACC-62): 0.00237 µM (active)
- GI50 (UO-31): 0.00244 µM (active)
- GI50 (XF498): 0.00135 µM (active)

SMILES: O=C(Cc1cc[n+]([O-])cc1)C(=O)Nc1cc(Cl)c(Cl)cc1Cl
- GI50 (786-0): > 100 µM (inactive)
- GI50 (A498): > 100 µM (inactive)
- GI50 (A549): > 100 µM (inactive)
- GI50 (ACHN): > 100 µM (inactive)
- GI50 (CCRF-CEM): > 100 µM (inactive)
- GI50 (COLO 205): > 100 µM (inactive)
- GI50 (DLD-1): > 100 µM (inactive)
- GI50 (DMS-114): > 100 µM (inactive)
- GI50 (EKVX): > 100 µM (inactive)
- GI50 (HCC 2998): > 100 µM (inactive)
- GI50 (HCT-116): > 100 µM (inactive)
- GI50 (HCT-15): > 100 µM
- GI50 (HL-60): > 100 µM (inactive)
- GI50 (HOP-62): > 100 µM (inactive)
- GI50 (HOP-92): 38.3 µM (inactive)
- GI50 (IGROV-1): > 100 µM (inactive)
- GI50 (K562): > 100 µM (inactive)
- GI50 (KM-20L2): > 100 µM (inactive)
- GI50 (KM12): > 100 µM (inactive)
- GI50 (LXFL 529): > 100 µM (inactive)
- GI50 (M14): > 100 µM (inactive)
- GI50 (M19-MEL): > 100 µM (inactive)
- GI50 (MOLT-4): > 100 µM (inactive)
- GI50 (Malme-3M): > 100 µM (inactive)
- GI50 (NCI-H23): > 100 µM (inactive)
- GI50 (NCI-H460): > 100 µM (inactive)
- GI50 (NCI-H522): > 100 µM (inactive)
- GI50 (OVCAR-3): > 100 µM (inactive)
- GI50 (OVCAR-4): > 100 µM (inactive)
- GI50 (OVCAR-5): > 100 µM (inactive)
- GI50 (OVCAR-8): > 100 µM (inactive)
- GI50 (RPMI-8226): > 100 µM (inactive)
- GI50 (RXF 393): > 100 µM (inactive)
- GI50 (RXF 631): > 100 µM (inactive)
- GI50 (SF-268): > 100 µM (inactive)
- GI50 (SF-295): > 100 µM (inactive)
- GI50 (SF-539): > 100 µM (inactive)
- GI50 (SK-MEL-28): > 100 µM (inactive)
- GI50 (SK-MEL-2): > 100 µM (inactive)
- GI50 (SK-MEL-5): > 100 µM (inactive)
- GI50 (SK-OV-3): > 100 µM (inactive)
- GI50 (SNB-19): > 100 µM (inactive)
- GI50 (SNB-75): 77.1 µM (inactive)
- GI50 (SNB-78): > 100 µM (inactive)
- GI50 (SW-620): > 100 µM (inactive)
- GI50 (TK-10): > 100 µM (inactive)
- GI50 (U-251): > 100 µM (inactive)
- GI50 (UACC-257): > 100 µM (inactive)
- GI50 (UACC-62): > 100 µM (inactive)
- GI50 (UO-31): > 100 µM (inactive)

SMILES: N#Cc1ccc2cc3c(cc2c1)OCO3
- GI50 (786-0): > 100 µM (inactive)
- GI50 (A498): 28.4 µM (inactive)
- GI50 (ACHN): 59.3 µM (inactive)
- GI50 (CCRF-CEM): > 100 µM (inactive)
- GI50 (COLO 205): > 100 µM (inactive)
- GI50 (DLD-1): > 100 µM (inactive)
- GI50 (DMS-114): > 100 µM (inactive)
- GI50 (DMS-273): 95.5 µM (inactive)
- GI50 (HCC 2998): > 100 µM (inactive)
- GI50 (HCT-116): 91 µM (inactive)
- GI50 (HCT-15): > 100 µM
- GI50 (HL-60): 77.1 µM (inactive)
- GI50 (HOP-62): > 100 µM (inactive)
- GI50 (HOP-92): 35.6 µM (inactive)
- GI50 (HT-29): > 100 µM (inactive)
- GI50 (IGROV-1): > 100 µM (inactive)
- GI50 (K562): 89.5 µM (inactive)
- GI50 (KM-20L2): > 100 µM (inactive)
- GI50 (KM12): > 100 µM (inactive)
- GI50 (LOX IMVI): > 100 µM (inactive)
- GI50 (LXFL 529): > 100 µM (inactive)
- GI50 (M14): > 100 µM (inactive)
- GI50 (M19-MEL): > 100 µM (inactive)
- GI50 (MOLT-4): 49.2 µM (inactive)
- GI50 (NCI-H226): 39.4 µM (inactive)
- GI50 (NCI-H23): > 100 µM (inactive)
- GI50 (NCI-H460): > 100 µM (inactive)
- GI50 (NCI-H522): > 100 µM (inactive)
- GI50 (OVCAR-3): > 100 µM (inactive)
- GI50 (OVCAR-4): > 100 µM (inactive)
- GI50 (OVCAR-5): 76.6 µM (inactive)
- GI50 (RPMI-8226): 54.5 µM (inactive)
- GI50 (RXF 393): 61.5 µM (inactive)
- GI50 (RXF 631): > 100 µM (inactive)
- GI50 (SF-268): > 100 µM (inactive)
- GI50 (SF-295): > 100 µM (inactive)
- GI50 (SF-539): 27 µM (inactive)
- GI50 (SK-MEL-28): > 100 µM (inactive)
- GI50 (SK-MEL-2): > 100 µM (inactive)
- GI50 (SK-OV-3): > 100 µM (inactive)
- GI50 (SN12C): > 100 µM (inactive)
- GI50 (SNB-19): 50.7 µM (inactive)
- GI50 (SNB-75): 26 µM (inactive)
- GI50 (SNB-78): > 100 µM (inactive)
- GI50 (U-251): 80.2 µM (inactive)
- GI50 (UACC-62): > 100 µM (inactive)
- GI50 (UO-31): 21.5 µM (inactive)
